{
  "source": "patent US20090233928A1",
  "about": "“IMIDAZOLO-5-YL-2-ANILO-PYRIMIDINES AS AGENTS FOR THE INHIBITION OF CELL PROLIFERATION” (priority 2005, published 2009)",
  "target": "T1, CDK2/Cyclin E (Homo sapiens, UniProt P24941)",
  "T1 construct": "The open reading frames of CDK2 and Cyclin E were isolated; made in house; host or cells: Sf21 (Spodoptera frugiperda) insect cells, baculovirus co-infection; the GST-Rb substrate was made in E. coli BL21 (DE3) pLysS",
  "assay": "in vitro kinase assay (Scintillation Proximity Assay), CDK2/Cyclin E, GST-Rb substrate",
  "type": "biochemical",
  "conditions": "in-vitro SPA kinase assay, read-out: CDK2 inhibitory activity IC50",
  "method": "The compounds were tested in an in vitro kinase assay in 96 well format using Scintillation Proximity Assay (SPA—obtained from Amersham) for measuring incorporation of [γ-33-P]-Adenosine Triphosphate into a test substrate (GST-Retinoblastoma protein; GST-Rb). In each well was placed the compound to be tested (diluted in DMSO and water to correct concentrations) and in control wells either roscovitine as an inhibitor control or DMSO as a positive control. […]\nThe plates were sealed with Topseal-S plate sealers, left for two hours then spun at 2500 rpm, 1124×g., for 5 minutes. The plates were read on a Topcount for 30 seconds per well. […]\nE. coli paste was resuspended in 10 ml/g of NETN buffer (50 mM Tris pH 7.5, 120 mM NaCl, 1 mM EDTA, 0.5% v/v NP-40, 1 mM PMSF, 1 ug/ml leupeptin, 1 ug/ml aprotinin and 1 ug/ml pepstatin) and sonicated for 2×45 seconds per 100 ml homogenate. […] The final product was analysed by Sodium Dodeca Sulfate (SDS) PAGE (Polyacrylamide gel) using 8-16% Tris-Glycine gels (Novex, San Diego, USA).\nThe open reading frames of CDK2 and Cyclin E were isolated by reverse transcriptase-PCR using HeLa cell and activated T cell mRNA as a template and cloned into the insect expression vector pVL1393 (obtained from Invitrogen 1995 catalogue number: V1392-20). […]",
  "data": [
    {"smiles": "Cc1ncc(-c2ccnc(Nc3ccc(N4CCOCC4)nc3)n2)n1C(C)C", "note": "[Example 22, 4-(1-Isopropyl-2-methyl-1H-imidazol-5-yl)-N-(6-morpholin-4-ylpyridin-3-yl)pyrimidin-2-amine]", "values": [
      {"measurement": "IC50", "result": 49, "unit": "nM"}
    ]}
  ]
}
